Experimental data from EP4324461A1, “(E)-N-CINAMOYLAMINOALKANOLES WITH MELANOGENESIS INHIBITORY ACTIVITY” (UNIWERSYTET JAGIELLONSKI, priority 2022, dated 2024).

What was measured:
E. coli WP2 = assay: Ames microplate test, E. coli WP2; conditions: without S9;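 note: bacteria treated 90 min at 37 °C in 24-well plates, then indicator medium dispensed to 384-well plates and incubated 48 h before yellow-well counting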
S. typhimurium TA98 = assay: Ames microplate test, TA98; assay type: cell-based, Salmonella typhimurium; conditions: without S9;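 note: reference level is the mean solvent-control yellow wells plus SD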
Method: Bacteria were grown overnight in growth medium.
Table 9. Ames microplate test results.

Keratinocytes (HaCaT) = assay: Safety, LDH test in keratinocytes; assay type: cell-based; conditions: 48 hours, positive control Triton X-100
Method: (§1) In order to test the safety of the compounds, both normal human cells were used: keratinocytes (HaCaT), fibroblasts (BJ), primary melanocytes that occur in the skin, as well as human cancer cells: the hepatocarcinoma line HepG2 and the neuroblastoma line SH-SY5Y, which are considered a model for the assessment of hepatocytotoxicity and neurocytotoxicity. The concentrations of the tested compounds in the range of 250-100 µM were used in the studies. The cell lines used in the research were purchased from the American Type Culture Collection (ATCC) and were cultured in media recommended by the manufacturer with the addition of FBS and antibiotics in an incubator ensuring appropriate culture conditions, i.e. humidity, temperature and CO2 concentration. Cells were seeded into multiwell plates and incubated with the test compounds for 48 hours. After this time, MTT and LDH tests were performed to assess cell viability. The MTT test is based on the ability to transform the substrate: [3-(4,5-dimethyl-2-thiazolyl)-2,5-diphenyl-2H-tetrazolium bromide into a colored product only by living cells. The absorbance at 570 nm, which corresponds to the absorption maximum for the product, is directly proportional to cell viability. The LDH test is based on testing the activity of the enzyme lactate dehydrogenase in the culture medium, which is released from cells as a result of damage to the cell membrane, e.g. as a result of cell death. Triton X-100 was used as a positive control in the test. The determination is colorimetric, the substrate is transformed by the released enzyme into a colored product, an increase in absorbance indicates a larger amount of the released enzyme, and thus confirms greater damage to cell membranes. Tables 7 and 8 present the results obtained, which correspond to the viability of cells incubated with the compounds in relation to the viability of cells constituting a control sample, i.e. incubated with the solvent (DMSO) at the same concentration as in the case of the groups tested in the MTT test or in relation to the results obtained for the Triton X-100 positive control in the LDH test. They indicate that the compounds are safe at the concentrations tested. Table 7. Viability of tested normal human cell lines: keratinocytes (HaCaT), fibroblasts (BJ) and primary melanocytes after incubation with the tested compounds - determination in the MTT test (% of solvent control ± SD) and LDH (percentage of positive control - Triton X-100.

Hepatocarcinoma HepG2 = assay: Safety, MTT test in HepG2; assay type: cell-based; conditions: 48 hours
Method: as §1

[1] = tested on: Chinese hamster ovary cell line (CHO-K1); assay: Cytotoxicity in CHO-K1 cells (MTT) before the micronucleus test; assay type: cell-based; conditions: 24 hours
Method in brief: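 CHO-K1 cells in F-12K with 10% FBS, 37 °C, 5% CO2, exposed to compounds for 24 hours. Viability by MTT, relative to DMSO vehicle at matching concentration; used to pick safe concentrations for the micronucleus test.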

neuroblastoma SH-SY5Y [2] = assay: Safety, MTT test in SH-SY5Y; assay type: cell-based; conditions: 48 hours
Method: as §1

neuroblastoma SH-SY5Y [3] = assay: Safety, LDH test in SH-SY5Y; assay type: cell-based; conditions: 48 hours, positive control Triton X-100
Method: as §1

Cc1ccc(/C=C/C(=O)NCCCCCO)cc1 [H-415/21, (2E)-N-(5-hydroxypentyl)-3-(4-methylphenyl)prop-2-enamide]
Increase in the number of yellow wells compared to the reference level (E. coli WP2; 0.5 mM): 0.64
Increase in the number of yellow wells compared to the reference level (E. coli WP2; 1.0 mM): 0.40
Increase in the number of yellow wells compared to the reference level (E. coli WP2; 2.0 mM): 0.95
Increase in the number of yellow wells compared to the reference level (S. typhimurium TA98; 0.5 mM): 0.47
Increase in the number of yellow wells compared to the reference level (S. typhimurium TA98; 1.0 mM): 0.24
Increase in the number of yellow wells compared to the reference level (S. typhimurium TA98; 2.0 mM): 0.35
Keratinocytes (HaCaT) LDH (Keratinocytes (HaCaT); 100 µM): 2.95 percentage of positive control
Keratinocytes (HaCaT) LDH (Keratinocytes (HaCaT); 150 µM): 6.70 percentage of positive control
Keratinocytes (HaCaT) LDH (Keratinocytes (HaCaT); 200 µM): 10.18 percentage of positive control
Keratinocytes (HaCaT) LDH (Keratinocytes (HaCaT); 250 µM): 18.19 percentage of positive control
Hepatocarcinoma HepG2 MTT (Hepatocarcinoma HepG2; 100 µM): 100.32±1.75 % of solvent control
Hepatocarcinoma HepG2 MTT (Hepatocarcinoma HepG2; 150 µM): 99.54±5.74 % of solvent control
Hepatocarcinoma HepG2 MTT (Hepatocarcinoma HepG2; 200 µM): 100.53±3.98 % of solvent control
Hepatocarcinoma HepG2 MTT (Hepatocarcinoma HepG2; 250 µM): 98.90±4.21 % of solvent control
% Viability [mean] ([1]; 100 µM): 102.2%
% Viability [mean] ([1]; 150 µM): 102.8%
% Viability [mean] ([1]; 200 µM): 87.2%
Neuroblastoma SH-SYSY MTT (neuroblastoma SH-SY5Y [2]; 100 µM): 100.68±4.63 % of solvent control
Neuroblastoma SH-SYSY MTT (neuroblastoma SH-SY5Y [2]; 150 µM): 99.32±2.96 % of solvent control
Neuroblastoma SH-SYSY MTT (neuroblastoma SH-SY5Y [2]; 200 µM): 100.27±3.50 % of solvent control
Neuroblastoma SH-SYSY MTT (neuroblastoma SH-SY5Y [2]; 250 µM): 101.71±2.38 % of solvent control
Neuroblastoma SH-SYSY LDH (neuroblastoma SH-SY5Y [3]; 100 µM): 3.90 percentage of positive control
Neuroblastoma SH-SYSY LDH (neuroblastoma SH-SY5Y [3]; 150 µM): 7.24 percentage of positive control
Neuroblastoma SH-SYSY LDH (neuroblastoma SH-SY5Y [3]; 200 µM): 8.92 percentage of positive control
Neuroblastoma SH-SYSY LDH (neuroblastoma SH-SY5Y [3]; 250 µM): 10.55 percentage of positive control
